Data as given in patent US8283352B2, “Solubilization preparation” (Dainippon Sumitomo Pharma Co., Ltd., priority 2005, dated 2012).
Counter-ions that a name gives are not always drawn.

Legend:
Assay type in all cases: physicochemical
[1] = Solubility of lurasidone or a free form thereof in additives (Table 1), visual check; details: for solubility at 30 min: thermodynamic from solid
Method: Solid-type additives were studied in 10% aqueous solutions thereof and liquid-type ones were studied in 100% solutions thereof. Specifically, to 10% aqueous solution of solid-type additive or to 100% solution of liquid-type one was added lurasidone or a free form thereof so that a concentration thereof was 10 mg/mL, and the mixture was promoted to be dissolved by an operation such as stirring, heating or sonication. It was confirmed by visual check 30 minutes after the operation whether the mixture was perfectly dissolved. In case that the mixture was perfectly dissolved in a concentration of 10 mg/mL, another amount of lurasidone or a free form thereof was added to be evaluated.

[2] = Storage stability of 30 mg/mL solutions, residual ratio by reverse phase HPLC (Table 2); details: aqueous solutions using benzyl alcohol, propylene glycol, N,N-dimethylacetamide and lactic acid; one-month storage at 60° C. and 40° C.
Method: Solutions comprising lurasidone and a hydrochloride thereof in a concentration of 30 mg/mL were prepared in formulations in Table 2 to be stored under warming conditions (60° C. and 40° C.). After one-month storage, a residual ratio of principal agent was measured by using reverse phase HPLC. […] In other words, the present invention can provide a solution-type preparation with high stability wherein lurasidone and a free form thereof are solubilized at high concentrations.
Column: YMC-Pack AM-312 (5 μm, 6.0 mmφ×150 mm, manufactured by YMC Co., Ltd.)
Detector: ultraviolet absorptiometer (measured wavelength: 230 nm)
Column temperature: constant temperature around 25° C.
Solution A: 0.025% aqueous trifluoroacetic acid solution/acetonitrile mixture (4:1)
Solution B: 0.025% trifluoroacetic acid in acetonitrile solution

[3] = Solubility in water

For O=C1[C@@H]2[C@H]3CC[C@H](C3)[C@@H]2C(=O)N1C[C@@H]1CCCC[C@H]1CN1CCN(c2nsc3ccccc23)CC1 [A free form of lurasidone, N-[4-[4-(1,2-benzisothiazol-3-yl)-1-piperazinyl]-(2R,3R)-2,3-tetramethylene-butyl]-(1′R,2′S,3′R,4′S)-2,3-bicyclo[2,2,1]heptane-dicarboxyimide], the Solubility ([1]; additive No. 21: Squalane) was under 10000 µg/mL, the Solubility ([1]; additive No. 22: Medium-chain triglyceride) was under 10000 µg/mL and the Solubility ([1]; additive No. 23: Benzyl benzoate) was under 10000 µg/mL. The Solubility ([1]; additive No. 24: Anhydrous ethanol) was under 10000 µg/mL, the Solubility ([1]; additive No. 25: Sorbitan sesquioleate) was under 10000 µg/mL and the Solubility ([1]; additive No. 26: 1,3-Butanediol) was under 10000 µg/mL. It also gave a Solubility ([1]; additive No. 27: Dipropylene glycol) of under 10000 µg/mL, a Solubility ([1]; additive No. 28: Triethyleneglycol) of under 10000 µg/mL and a Solubility ([1]; additive No. 29: Isopropyl alcohol) of under 10000 µg/mL. The Solubility ([1]; additive No. 32: Isopropyl myristate) was under 10000 µg/mL, the Solubility ([1]; additive No. 34: Monoethanolamine) was under 10000 µg/mL and the Solubility ([1]; additive No. 35: Diethanolamine) was under 10000 µg/mL. For the same compound, the Solubility ([1]; additive No. 36: Triethanolamine) was under 10000 µg/mL, the Solubility ([1]; additive No. 37: Liquid paraffin) was under 10000 µg/mL and the Solubility ([1]; additive No. 38: Toluene) was over 50000 µg/mL. For the same compound, the Solubility ([1]; additive No. 41: N-Methyl-2-pyrrolidone) was over 50000 µg/mL, the Solubility ([1]; additive No. 42: Glycol salicylate) was under 10000 µg/mL and the Solubility ([1]; additive No. 44: Triacetin) was under 10000 µg/mL. It also gave a Solubility ([1]; additive No. 46: Sesame oil) of under 10000 µg/mL, a Solubility ([1]; additive No. 47: Castor oil) of under 10000 µg/mL and a Solubility ([1]; additive No. 49: Arachis oil) of under 10000 µg/mL. It also gave a Solubility ([1]; additive No. 50: Camellia oil) of under 10000 µg/mL, a Solubility ([1]; additive No. 51: Soybean oil) of under 10000 µg/mL and a Solubility ([1]; additive No. 52: Olive oil) of under 10000 µg/mL.

With O=C1[C@@H]2[C@H]3CC[C@H](C3)[C@@H]2C(=O)N1C[C@@H]1CCCC[C@H]1CN1CCN(c2nsc3ccccc23)CC1 [Lurasidone, N-[4-[4-(1,2-benzisothiazol-3-yl)-1-piperazinyl]-(2R,3R)-2,3-tetramethylene-butyl]-(1′R,2′S,3′R,4′S)-2,3-bicyclo[2,2,1]heptanedicarboxyimide hydrochloride] the solubility at 30 min ([1]; aqueous buffer, additive No. 8: Sodium hydrogen carbonate) was under 10000 µg/mL, the solubility at 30 min ([1]; aqueous with cosolvent or surfactant or cyclodextrin, additive No. 1: Citric acid) was under 10000 µg/mL and the solubility at 30 min ([1]; aqueous with cosolvent or surfactant or cyclodextrin, additive No. 2: Sodium citrate) was under 10000 µg/mL. It also gave a solubility at 30 min ([1]; aqueous with cosolvent or surfactant or cyclodextrin, additive No. 3: L-Aspartic acid) of under 10000 µg/mL, a solubility at 30 min ([1]; aqueous with cosolvent or surfactant or cyclodextrin, additive No. 4: L-Arginine) of under 10000 µg/mL and a solubility at 30 min ([1]; aqueous with cosolvent or surfactant or cyclodextrin, additive No. 5: Soy lecithin) of under 10000 µg/mL. For the same compound, the solubility at 30 min ([1]; aqueous with cosolvent or surfactant or cyclodextrin, additive No. 6: Polysorbate 80) was under 10000 µg/mL, the solubility at 30 min ([1]; aqueous with cosolvent or surfactant or cyclodextrin, additive No. 7: D-Mannitol) was under 10000 µg/mL and the solubility at 30 min ([1]; aqueous with cosolvent or surfactant or cyclodextrin, additive No. 9: β-Cyclodextrin) was under 10000 µg/mL. It also gave a solubility at 30 min ([1]; aqueous with cosolvent or surfactant or cyclodextrin, additive No. 10: Maleic acid) of under 10000 µg/mL, a solubility at 30 min ([1]; aqueous with cosolvent or surfactant or cyclodextrin, additive No. 12: Calcium bromide) of under 10000 µg/mL and a solubility at 30 min ([1]; aqueous with cosolvent or surfactant or cyclodextrin, additive No. 13: Ethylene diamine hydrochloride) of under 10000 µg/mL. It also gave a solubility at 30 min ([1]; aqueous with cosolvent or surfactant or cyclodextrin, additive No. 14: Tris) of under 10000 µg/mL, a solubility at 30 min ([1]; aqueous with cosolvent or surfactant or cyclodextrin, additive No. 16: Nicotinic amide) of under 10000 µg/mL and a solubility at 30 min ([1]; aqueous with cosolvent or surfactant or cyclodextrin, additive No. 17: Capric acid) of under 10000 µg/mL. For the same compound, the solubility at 30 min ([1]; oil or lipid, additive No. 11: Ethyl oleate) was under 10000 µg/mL, the solubility at 30 min ([1]; oil or lipid, additive No. 21: Squalane) was under 10000 µg/mL and the solubility at 30 min ([1]; oil or lipid, additive No. 22: Medium-chain triglyceride) was under 10000 µg/mL. For the same compound, the solubility at 30 min ([1]; oil or lipid, additive No. 46: Sesame oil) was 1000 to 10000 µg/mL, the solubility at 30 min ([1]; oil or lipid, additive No. 47: Castor oil) was 1000 to 10000 µg/mL and the solubility at 30 min ([1]; oil or lipid, additive No. 49: Arachis oil) was 1000 to 10000 µg/mL. The solubility at 30 min ([1]; oil or lipid, additive No. 50: Camellia oil) was 1000 to 10000 µg/mL, the solubility at 30 min ([1]; oil or lipid, additive No. 51: Soybean oil) was 1000 to 10000 µg/mL and the solubility at 30 min ([1]; oil or lipid, additive No. 52: Olive oil) was under 1000 µg/mL. For the same compound, the solubility at 30 min ([1]; organic solvent or mixture, additive No. 15: Polyethylene glycol 400) was under 10000 µg/mL, the solubility at 30 min ([1]; organic solvent or mixture, additive No. 18: Concentrated glycerin) was under 10000 µg/mL and the solubility at 30 min ([1]; organic solvent or mixture, additive No. 19: Propylene glycol) was 30000 to 100000 µg/mL. For the same compound, the solubility at 30 min ([1]; organic solvent or mixture, additive No. 20: Lactic acid) was over 100000 µg/mL, the solubility at 30 min ([1]; organic solvent or mixture, additive No. 30: Benzyl alcohol) was over 200000 µg/mL and the “stability in aqueous solutions (in words)” value [2] was “stable”. For the same compound, the solubility in water [3] was “less than several”.
